The values that follow come from patent US20050048579A1, “Tertiary structures of ICAM-1/LFA-1 modulators” (priority 2003, published 2005).

Bridge positions count the residues as written; N and C are the ends. Ends that are not written are not given here. Peptide text beside a SMILES is read from it.

One may read the IC50 as the concentration that inhibits the measured activity by half. A high value points to weaker potency.

T1 sequence (P05362 28-532 limits assumed): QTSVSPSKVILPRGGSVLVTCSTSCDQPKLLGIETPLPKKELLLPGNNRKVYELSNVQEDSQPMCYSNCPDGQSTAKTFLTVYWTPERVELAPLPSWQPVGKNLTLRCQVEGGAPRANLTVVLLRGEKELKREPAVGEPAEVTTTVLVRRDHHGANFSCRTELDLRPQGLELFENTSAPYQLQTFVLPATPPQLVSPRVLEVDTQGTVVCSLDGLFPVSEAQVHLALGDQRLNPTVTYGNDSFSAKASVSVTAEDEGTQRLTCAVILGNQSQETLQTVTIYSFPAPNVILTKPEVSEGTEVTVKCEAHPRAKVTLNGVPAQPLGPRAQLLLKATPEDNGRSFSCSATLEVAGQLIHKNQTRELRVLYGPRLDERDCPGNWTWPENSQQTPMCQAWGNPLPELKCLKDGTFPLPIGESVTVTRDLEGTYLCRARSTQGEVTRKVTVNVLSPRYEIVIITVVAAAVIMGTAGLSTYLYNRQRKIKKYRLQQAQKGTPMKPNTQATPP

The first test addresses T1, Intercellular adhesion molecule-1 (ICAM-1) on JY cells (UniProt P05362 28-532, limits assumed). Put plainly: cell-based or functional assay.
Conditions: not given
Take CLLRMRSIC (disulfide 1-9) [IP01 (inhibitory peptide-01)]: the “IC50, inhibition of JY cell aggregation, 360 minute incubation” value stood at 580 µM. Turning to CLLRMRSAC (disulfide 1-9) [IP02], the “IC50, inhibition of JY cell aggregation, 360 minute incubation” value came out at 480 µM; the “fold improvement of activity over IP01 (JY cell aggregation)” value is 2 fold; the “fold improvement of inhibition over IP01 (JY cell aggregation IC50)” value was found to be 2.5 fold.

In a further test the target is T1, Intercellular adhesion molecule-1 …. Nature of the test: cell-based or functional assay.
Conditions: not given
This is another data set of the same source.
For the molecule CLLRMASIC (disulfide 1-9) [IP01-A6], the “IC50, inhibition of JY cell aggregation at 2 hours” value (shortened to “IC50, inhibition … at 2 hours”) was more than 1000 µM. Consider CLLRMRSIC (disulfide 1-9) [IP01 (inhibitory peptide-01)], for which the “IC50, inhibition … at 2 hours” value was 530 µM. CALRMRSIC (disulfide 1-9) [IP01-A2]: the “IC50, inhibition … at 2 hours” value is more than 1000 µM. As to CLLRMRAIC (disulfide 1-9) [IP01-A7], the “IC50, inhibition … at 2 hours” value was found to be 740 µM.

On to CLARMRSIC (disulfide 1-9) [IP01-A3], for which the “IC50, inhibition … at 2 hours” value was more than 1000 µM. Regarding CLLRMRSAC (disulfide 1-9) [IP02], the “IC50, inhibition … at 2 hours” value amounted to 210 µM. As for CLLRARSIC (disulfide 1-9) [IP01-A5], the “IC50, inhibition … at 2 hours” value was more than 1000 µM.

For the next test, the target named is T2, LFA-1 binding to ICAM-1 (JY cells) (Homo sapiens, UniProt P05362).
T2 construct: endogenous in cells; host or cells: JY cells
T2 sequence (P05362 28-532): as the sequence (P05362 28-532 limits assumed) above
Put plainly: LFA-1:ICAM-1 dependent JY cell aggregation assay (2 hours). The class given is cell-based.
Conditions: not given
Here is the method:
Cysteine-constrained peptides, synthesized by Biopeptide (San Diego, Calif., USA), were isolated using high-performance liquid chromatography, and their correct mass was confirmed by mass spectrometry. The peptides were dissolved in 5% dimethylsulfoxide in phosphate-buffered saline (PBS) at concentrations of 10 mm and stored at −80° C. until use. The mAb directed against LFA-1 (TS1/18) was purified from a hybridoma line ([…], Manassas, Va.) as described previously (Oj, V. T. & Herzenberg, T. (1980) Immunoglobulin-producing hybrid celllines. In Selected Methods in Cellular Immunology (Mishell, B. B. & Shiigi, S. M.,eds), H. H. Freeman, New York; Larson, R. S., Brown, D. C. & Sklar, L. A.(1997) Retinoic acid induces aggregation of the acute promyelocytic leukemia cell lineNB-4 by utilization of LFA-1 and ICAM-2.Blood 90, 2747-2756; Rothlein, R. & Springer, T. A. (1986) The requirement for lymphocyte function associated antigen 1 in homotypic leukocyte adhesion stimulated by phorbol ester. J. Exp.Med. 163, 1132-1149).
(§1) JY cells were maintained in RPMI-1640 medium supplemented with 10% fetal bovine serum at 37° C. in an atmosphere containing 5% CO2 in air. The aggregation of JY cells, which is dependent on LFA-1 binding to ICAM-1, was determined as previously reported (Shannon, J. P., Silva, M. V., Brown, D. C. & Larson, R. S. (2001) Novel cyclic peptide inhibits intercellular adhesion molecule-1-mediated cell aggregation. J. Pept. Res. 58, 140-150; Larson, R. S., Brown, D. C. & Sklar, L. A.(1997) Retinoic acid induces aggregation of the acute promyelocytic leukemia cell lineNB-4 by utilization of LFA-1 and ICAM-2.Blood 90, 2747-2756; Rothlein, R. & Springer, T. A. (1986) The requirement for lymphocyte function associated antigen 1 in homotypic leukocyte adhesion stimulated by phorbol ester. J. Exp.Med. 163, 1132-1149). Briefly, JY cells were washed twice with serum-free media and resuspended at a concentration of 4×10^5 cells/mL. Cells were then preincubated with various concentrations of peptides or mAb for 15 minutes at room temperature. A 50 μL aliquot of cells was seeded in each well of a 96-well flat-bottomed microtiterplate followed by the addition of either peptide or mAb to a final volume of 100 μL. Cells were allowed to aggregate at 37° C. in humidified air containing 5% CO2. Within each well, the number of aggregates and the total number of free (single) cells were counted by inverted phase microscopy. Percent aggregation, P, was then determined as follows: P=100(1−Ff/Fi), where Ff (Fi) is the final (initial) number of free cells. Percent aggregation was then used to calculate percent inhibition, I, as follows: […], where Pi (Pc) is the percent aggregation with modulatory peptide (control). The constants for 50% inhibition (IC50) were derived from a linear fit to the percent inhibition at four concentrations (50 μm, 100 μm, 500 μm, and 1 mm) of inhibitory peptide. Each experiment was performed at least three times, with each condition performed in duplicate. The data are reported as the mean values and the SDs of each IC50.
In turn, `CC[C@H](C)[C@@H]1NC(=O)[C@H](CO)NC(=O)[C@H](C)NC(=O)[C@H](CCSC)NC(=O)[C@H](CCCNC(=N)N)NC(=O)[C@H](CC(C)C)NC(=O)[C@H](CC(C)C)NC(=O)[C@@H](N)CSSC[C@@H](C(=O)O)NC1=O` [IP01-A6, CLLRMASIC] (H-CLLRMASIC-OH; disulfide 1-9; N-terminus and C-terminus assumed) registered an IC50 of more than 1000 µM. In turn, `CC[C@H](C)[C@@H]1NC(=O)[C@H](CO)NC(=O)[C@H](CCCNC(=N)N)NC(=O)[C@H](CCSC)NC(=O)[C@H](CCCNC(=N)N)NC(=O)[C@H](CC(C)C)NC(=O)[C@H](C)NC(=O)[C@@H](N)CSSC[C@@H](C(=O)O)NC1=O` [IP01-A2, CALRMRSIC] (H-CALRMRSIC-OH; disulfide 1-9; N-terminus and C-terminus assumed) yielded an IC50 of more than 1000 µM. Take `CC[C@H](C)[C@@H]1NC(=O)[C@H](CO)NC(=O)[C@H](CCCNC(=N)N)NC(=O)[C@H](C)NC(=O)[C@H](CCCNC(=N)N)NC(=O)[C@H](CC(C)C)NC(=O)[C@H](CC(C)C)NC(=O)[C@@H](N)CSSC[C@@H](C(=O)O)NC1=O` [IP01-A5, CLLRARSIC] (H-CLLRARSIC-OH; disulfide 1-9; N-terminus and C-terminus assumed): the concentration for half-maximal inhibition (IC50) is more than 1000 µM. `CC[C@H](C)[C@@H]1NC(=O)[C@H](CO)NC(=O)[C@H](CCCNC(=N)N)NC(=O)[C@H](CCSC)NC(=O)[C@H](CCCNC(=N)N)NC(=O)[C@H](C)NC(=O)[C@H](CC(C)C)NC(=O)[C@@H](N)CSSC[C@@H](C(=O)O)NC1=O` [IP01-A3, CLARMRSIC] (H-CLARMRSIC-OH; disulfide 1-9; N-terminus and C-terminus assumed) came in with an IC50 of more than 1000 µM.

Staying with this test, now noted: listed as S7 to alanine substitution.
As for `CC[C@H](C)[C@@H]1NC(=O)[C@H](C)NC(=O)[C@H](CCCNC(=N)N)NC(=O)[C@H](CCSC)NC(=O)[C@H](CCCNC(=N)N)NC(=O)[C@H](CC(C)C)NC(=O)[C@H](CC(C)C)NC(=O)[C@@H](N)CSSC[C@@H](C(=O)O)NC1=O` [IP01-A7, CLLRMRAIC] (H-CLLRMRAIC-OH; disulfide 1-9; N-terminus and C-terminus assumed), the “bioactivity after alanine substitution (in words)” value is recorded as “retained significant bioactivity”.

For the next test, the target named is T2, LFA-1 binding to ICAM-1 (JY cells). Nature of the test: LFA-1:ICAM-1 dependent cell aggregation assay, slightly modified (360 minute incubations). The class given is cell-based. As to conditions: cell aggregation. Here is the method: as §1
The same general procedure was used as described in Example 1.
The functional activity of each IP02 derivative was measured in a slightly-modified version of the previously described cell aggregation assay (Shannon, J. P., Silva, M. V., Brown, D. C., & Larson, R. S. (2001). Novel cyclic peptide inhibits intercellular adhesion molecule-1-mediated cell aggregation. J. Pept. Res. 58, 140-150; Merchant, S. H., Gurule, D. M., Larson, R. S. (2003). Amelioration of ischemia-reperfusion injury with cyclic peptide blockade of ICAM-1. Am. J. Physiol. Heart Circ. 284,H1260-1268; Larson, R. S., Brown, D. C., and Sklar, L. A. (1997). Retinoic acid induces aggregation of the acute promyelocytic leukemia cell line NB-4 by utilization of LFA-1 and ICAM-2. Blood 90, 2747-2756; Rothlein, R. and Springer, T. A. (1986). The requirement for lymphocyte function-associated antigen 1 in homotypic leukocyte adhesion stimulated by phorbol ester. J. Exp. Med. 163, 1132-1149). Longer incubations (360 minutes) were used here instead of the earlier 120 minute incubations in order to increase the observed differences among peptide antagonists. Of all the amino acid substitutions, replacement of R6 with K, to produce IP02-K6, improved the IC50 the most. […] Alternatively, replacement of L2 or L3 with V (IP02-V2 and IP02-V3) or A8 with L (IP02-L8) abrogated activity, with IC50s exceeding 1,000 μM.
Regarding `CSCC[C@@H]1NC(=O)[C@H](CCCNC(=N)N)NC(=O)[C@H](C(C)C)NC(=O)[C@H](CC(C)C)NC(=O)[C@@H](N)CSSC[C@@H](C(=O)O)NC(=O)[C@H](C)NC(=O)[C@H](CO)NC(=O)[C@H](CCCNC(=N)N)NC1=O` [IP02-V3] (H-CLVRMRSAC-OH; disulfide 1-9; N-terminus and C-terminus assumed), the IC50 is more than 1000 µM. In turn, `CSCC[C@@H]1NC(=O)[C@H](CCCNC(=N)N)NC(=O)[C@H](CC(C)C)NC(=O)[C@H](CC(C)C)NC(=O)[C@@H](N)CSSC[C@@H](C(=O)O)NC(=O)[C@H](C(C)C)NC(=O)[C@H](CO)NC(=O)[C@H](CCCNC(=N)N)NC1=O` [IP02-V8] (H-CLLRMRSVC-OH; disulfide 1-9; N-terminus and C-terminus assumed) displayed an IC50 of 700 µM.

Regarding `CSCC[C@@H]1NC(=O)[C@H](CCCCN)NC(=O)[C@H](CC(C)C)NC(=O)[C@H](CC(C)C)NC(=O)[C@@H](N)CSSC[C@@H](C(=O)O)NC(=O)[C@H](C)NC(=O)[C@H](CO)NC(=O)[C@H](CCCNC(=N)N)NC1=O` [IP02-K4, CLLKMRSAC] (H-CLLKMRSAC-OH; disulfide 1-9; N-terminus and C-terminus assumed), the 50% inhibitory concentration (IC50) was in the range of 105 to 190 µM. Turning to `CSCC[C@@H]1NC(=O)[C@H](CCCNC(=N)N)NC(=O)[C@H](CC(C)C)NC(=O)[C@H](CC(C)C)NC(=O)[C@@H](N)CSSC[C@@H](C(=O)O)NC(=O)[C@H](CC(C)C)NC(=O)[C@H](CO)NC(=O)[C@H](CCCNC(=N)N)NC1=O` [IP02-L8, CLLRMRSLC] (H-CLLRMRSLC-OH; disulfide 1-9; N-terminus and C-terminus assumed), the IC50 is more than 1000 µM. Turning to `CC[C@H](C)[C@@H]1NC(=O)[C@@H](N)CSSC[C@@H](C(=O)O)NC(=O)[C@H](C)NC(=O)[C@H](CO)NC(=O)[C@H](CCCNC(=N)N)NC(=O)[C@H](CCSC)NC(=O)[C@H](CCCNC(=N)N)NC(=O)[C@H](CC(C)C)NC1=O` [IP02-12, CILRMRSAC] (H-CILRMRSAC-OH; disulfide 1-9; N-terminus and C-terminus assumed), the IC50 fell in the range of 105 to 190 µM. Regarding `CSCC[C@@H]1NC(=O)[C@H](CCCNC(=N)N)NC(=O)[C@H](CC(C)C)NC(=O)[C@H](C(C)C)NC(=O)[C@@H](N)CSSC[C@@H](C(=O)O)NC(=O)[C@H](C)NC(=O)[C@H](CO)NC(=O)[C@H](CCCNC(=N)N)NC1=O` [IP02-V2] (H-CVLRMRSAC-OH; disulfide 1-9; N-terminus and C-terminus assumed), the IC50 was more than 1000 µM.

The same test, now with this note: cell aggregation, unit μm [sic].
In the case of `CSCC[C@@H]1NC(=O)[C@H](CCCNC(=N)N)NC(=O)[C@H](CC(C)C)NC(=O)[C@H](CC(C)C)NC(=O)[C@@H](N)CSSC[C@@H](C(=O)O)NC(=O)[C@H](C(C)C)NC(=O)[C@H](CO)NC(=O)[C@H](CCCNC(=N)N)NC1=O` [IP02-V8] (H-CLLRMRSVC-OH; disulfide 1-9; N-terminus and C-terminus assumed), the IC50 was approximately 700 µM. Take `CC[C@H](C)[C@@H]1NC(=O)[C@H](CC(C)C)NC(=O)[C@@H](N)CSSC[C@@H](C(=O)O)NC(=O)[C@H](C)NC(=O)[C@H](CO)NC(=O)[C@H](CCCNC(=N)N)NC(=O)[C@H](CCSC)NC(=O)[C@H](CCCNC(=N)N)NC1=O` [IP02-13, CLIRMRSAC] (H-CLIRMRSAC-OH; disulfide 1-9; N-terminus and C-terminus assumed): the IC50 was approximately 700 µM.
